Non-standard residues stand in square brackets, D forms with d. No end group written: not given here. *: point of attachment. Biotin = O=C1N[C@H]2[C@H](CS[C@H]2CCCCC(=O)*)N1; Bpa = N[C@@H](Cc1ccc(C(=O)c2ccccc2)cc1)C(=O)O
Experiments:
α-crystallin = system: α-crystallin; design: method as in 2 sources, one per row (each row's own in cited_ref): ref [43] = [43]; PMID 8549682; doi:10.1016/s0014-4835(05)80136-8; 43 Sharma KK , Ortwerth BJ ( 1995 ) Effect of cross-linking on the chaperone-like function of alpha crystallin . Exp Eye Res 61 : 413 – 421 . 8549682 10.1016/s0014-4835(05)80136-8 ||| ref [44] = [44]; PMID 15199188; doi:10.1073/pnas.0403532101; 44 Kantorow M , Hawse JR , Cowell TL , Benhamed S , Pizarro GO , et al ( 2004 ) Methionine sulfoxide reductase A is important for lens cell viability and resistance to oxidative stress . Proc Natl Aca; conditions: α-crystallin in water-insoluble fraction of lens proteins; ref [43]; cited from earlier work
wild-type α-crystallin = conditions: modulator in 10- to 30-fold higher concentrations than α-crystallin; ref [39]–[42]; cited from earlier work
Excerpt: In those studies the modulator was used in 10- to 30-fold higher concentrations than the α-crystallin [39]–[42] and the conformational changes in α-crystallin in the presence of the modulator was considered to be responsible for the activity enhancement.

αAG98R [1] = target: T1, αAG98R (Homo sapiens, UniProt P02489, G98R); experiment: Photo-crosslinking, SDS-PAGE and western blot; type: binding; conditions: for covalent association with αAG98R subunits: photolyzed, SDS-PAGE and western blot
T1 construct: the full-length human αA-crystallin cDNA cloned into pET-23d (+) vector; made in house; host or cells: E. coli BL21(DE3)pLysS
Protocol: (§1) Biotinyl-αA-mini-chaperone-Bpa peptide (200 µg) was incubated with 200 µg of αAG98R crystallin in buffer, pH 7.2, at 37°C for 1 hr. Subsequently, the sample was filtered in a Microcon 10 kDa cut of filter (Millipore, Bedford, MA) to remove free peptides. The sample was photolyzed for 30 min, at 4°C, using a UV lamp (365 nm) held at a distance of 7 cm from the sample. The photolyzed sample was desalted using C18 zip tip spin columns (Thermo Fisher Scientific, Rockford, IL), as per the manufacturer's protocol, and the bound protein was eluted in 70% acetonitrile. […] The UV-photolyzed sample was subjected to SDS-PAGE and western blot analysis using antibody against biotin.
Figure 6 SDS-PAGE analysis of αAG98R cross-linked with biotinylated Bpa-mini-αA. Incubation, photolysis and SDS-PAGE (lanes 1–3), western blot (lanes 4 and 5) analysis were performed as described under methods. Lane 1, photolysed αAG98R; lane 2, αAG98R incubated with biotinyl-Bpa mini-αA and photolyzed; lane 3 mol wt markers. […] This band was absent in non-photolyzed samples (data not shown).Lanes 4 and 5 western blot of lanes 1 and 2 respectively. […] The figure is representative of 3 independent experiments.

αAG98R [2] = target: T1, αAG98R; experiment: Photo-crosslinking, MALDI-TOF/TOF MS; type: binding; conditions: photolyzed; restated in the discussion
Protocol: as §1
Figure 7 MALDI-TOF MS spectrum of αAG98R photolyzed after incubation with or without biotinyl-Bpa-mini-αA-crystallin. A, αAG98R after photolysis; B, αAG98R photolyzed after incubation with biotinyl-Bpa mini-αA. The αAG98R-Bpa mini-αA complex with m/z 22592 is indicated by an arrow. Mass spectrometric analysis confirms the 1∶1 interaction of mini-chaperone with αAG98R monomer. The figure is representative of 3 independent experiments.

[3] = system: alcohol dehydrogenase (ADH); experiment: ADH aggregation assay, heat-denatured (chaperone-like activity); type: biochemical; conditions: peptide alone, 43°C
Protocol: (§2) Aggregation assay was performed in 1 ml 50 mM phosphate buffer containing 150 mM NaCl and 100 mM EDTA at 43°C. The chaperone activity of Biotin-[…](Bpa)[…] as well as a Pro-substituted mini-chaperone ([…]) was also measured by ADH aggregation assay. The extent of aggregation was estimated by monitoring the light scattering at 360 nm using a Shimadzu UV-VIS spectrophotometer equipped with a temperature-controlled multi-cell transporter.
Similar to our earlier observation, αAG98R suppressed ADH aggregation during the early part of the 2 hr assay but the assay mixture started to scatter light after 60 min (Figure 5A).
Figure 5 Effect of the addition of αA-crystallin–derived mini-chaperone on the chaperone-like activity of αAG98R against ADH aggregation. […] The figures represent the typical data obtained multiple times with WT-αA-crystallin and stabilized αAG98R.

αAG98R [4] = target: T1, αAG98R; experiment: Recovery of soluble αAG98R after incubation at 43°C (gel filtration, TSK G5000PWXL); type: biochemical; conditions: 75 µg αAG98R
Protocol: (§3) Samples were injected on to a TSK G5000PWXL (Tosoh Bioscience, Montgomeryville, PA) size-exclusion column equilibrated with 50 mM sodium phosphate buffer containing 150 mM NaCl (pH 7.2). The flow rate was set to 0.75 ml/min. The column was attached to a HPLC system connected with UV and refractive index detectors and coupled to a static multi-angle laser light scattering (DAWN-EOS) and dynamic quasi-elastic light scattering detectors (Wyatt Technology, Santa Barbara, CA). The molar mass (Mw), hydrodynamic radius (Rh) and polydispersity index (PDI) were determined using ASTRA (5.3.2) software developed by Wyatt Technology.
(§4) We know from previous studies thatαA-mini-chaperone suppresses the aggregation and precipitation of denaturing proteins, [29], [30]. […] The samples were centrifuged to remove any precipitate formed during incubation, and the supernatant was analyzed by TSKG5000 PWXL gel filtration column connected to a multi-angle laser light scattering (DAWN-EOS) and dynamic quasi-elastic light scattering detectors. […] The first peak corresponded to the oligomeric form of αAG98R, whereas the second peak represented dissociated subunits of the mutant protein. […] The hydrodynamic radius (Rh) of the stabilized αAG98R increased from 15.3 nm to 16.4 nm, consistent with increase in molar mass.

αAG98R [5] = target: T1, αAG98R; experiment: αAG98R recovery with different amounts of mini-chaperone (43°C, 30 min); type: binding; conditions: 1∶2 ratio (mol/mol) of αAG98R to mini-αA, 10 µM αAG98R
αAG98R [6] = target: T1, αAG98R; experiment: Thermal aggregation monitored by light scattering at 360 nm; type: biochemical; conditions: 750 µg αAG98R, 1.7∶1 (mol/mol) ratio, 90 min, representative of 3 experiments
Protocol: Light scattering was monitored at 360 nm for 90 min using a spectrophotometer. […] Because αAG98R is a structurally perturbed protein [20], [21], we hypothesize that the mini-chaperone interacted with mutant αAG98R and prevented aggregation and light scattering. […] The aggregation and precipitation of αAG98R also occurred at 37°C but at a slower rate. […] Nearly 80% of αAG98R was recovered when the incubation was carried out with 1∶2 ratio (mol/mol) of αAG98R to mini-αA-.
The protein samples (750 µg) were incubated in 1 ml PO4 buffer, pH 7.2 at 43°C and light scattering was continually monitored at 360 nm for 90 min in a spectrophotometer. […] The figure is representative of 3 independent experiments.

[7] = system: alcohol dehydrogenase (ADH); experiment: EDTA-induced ADH aggregation assay at 37°C; type: biochemical; conditions: 250 µg ADH, 50 µg peptide, representative of two experiments
Protocol: as §2
The EDTA-induced aggregation of ADH assay was performed at 37°C as described under methods. In each experiment 250 µg of ADH was used. […] The figure is representative of two independent experiments. (TIF) Click here for additional data file.

[8] = system: ADH, citrate synthase, insulin and α-lactalbumin; design: method as in PMID 10660525, PMID 11350603, PMID 11563692; conditions: ref [26], [29], [30]; cited from earlier work
[9] = system: αAG98R / wild-type αA-crystallin oligomer; experiment: Multi-angle/quasi-elastic light scattering of αA-crystallin oligomers; type: physicochemical, human; conditions: 43°C, wild-type protein
Protocol: as §3, §4

[10] = system: αAG98R / wild-type αA-crystallin; experiment: Far-UV CD thermal denaturation (218 nm); type: physicochemical, human; conditions: 100 µg/400 µl, 10 mM phosphate pH 7.2, listed as αA-crystallin mini-chaperone = αAG98R incubated with it
Protocol: Circular dichroism (CD) spectropolarimeter, J815 (Jasco, Easton, MD), equipped with a temperature control system, was employed to record CD spectra. Far-UV CD measurements were carried out over the wavelength range of 190 to 250 nm with bandwidth 0.5 nm, scan speed 10 nm/min using 0.1-cm path length cuvettes. Protein samples were prepared in 10 mM sodium phosphate buffer (pH 7.2). Spectra are the average of five scans. Buffer signal was subtracted prior to reporting the data. Thermal denaturation data were collected from 25°C to 45°C, with protein concentration of 100 µg/400 µl. Thermal denaturation experiments were performed with a heating rate of 1°C/min, and CD signals at 218 nm were used to determine transition midpoints. Near-UV CD spectra were recorded using a protein sample of 1.5 mg/ml in the buffer used for far-UV studies.
Proteins, 100 µg, were prepared in 400 µl of10 mM phosphate buffer, pH 7.2, and the sample temperatures were slowly raised from 25 to 48°C in 2°C steps, equilibrated for 5 min at each temperature prior to far-UV CD measurement. Molar ellipticity changes at 218 nm were plotted to determine relative stability of samples. […] The spectra were recorded using a protein sample of 1.5 mg/ml. The profile shown is the average of 5 scans.

T1 sequence (P02489 whole entry G98R): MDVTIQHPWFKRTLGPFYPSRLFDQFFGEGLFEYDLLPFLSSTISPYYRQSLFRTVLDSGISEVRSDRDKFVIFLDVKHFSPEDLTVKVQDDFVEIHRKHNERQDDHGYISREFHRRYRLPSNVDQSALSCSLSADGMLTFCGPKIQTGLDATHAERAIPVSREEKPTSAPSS

O[C@@H](CS)[C@@H](O)CS (racemic) [dithiothreitol (DTT), dithiothreitol]
restoration of chaperone activity by DTT (α-crystallin): restores some of the lost chaperone activity

Nc1ncnc2c1ncn2[C@@H]1O[C@H](COP(=O)(O)OP(=O)(O)OP(=O)(O)O)[C@@H](O)[C@H]1O [ATP]
modulation of wild-type α-crystallin chaperone activity (wild-type α-crystallin): Modulation of wild-type α-crystallin chaperone activity

N=C(N)NN [aminoguanidine]
modulation of wild-type α-crystallin chaperone activity (wild-type α-crystallin): Modulation of wild-type α-crystallin chaperone activity

N=C(N)NCCC[C@H](N)C(=O)O [arginine]
modulation of wild-type α-crystallin chaperone activity (wild-type α-crystallin): Modulation of wild-type α-crystallin chaperone activity

N[C@@H](CCC(=O)N[C@@H](CS)C(=O)NCC(=O)O)C(=O)O [glutathione]
modulation of wild-type α-crystallin chaperone activity (wild-type α-crystallin): Modulation of wild-type α-crystallin chaperone activity

Biotin-DFVIFLDVKH[Bpa]SPEDLTVK [biotinyl-Bpa-mini-chaperone] [listing 1 of 2 here]
αAG98R photo-crosslinked (image analysis of stained gel) (αAG98R [1]; 200 µg peptide + 200 µg αAG98R, pH 7.2, 37°C, 1 hr, photolysis 365 nm 30 min 4°C, representative of 3 experiments): about 10% | covalent association with αAG98R subunits (αAG98R [1]; representative of 3 experiments): covalent association of αA-mini-chaperone with αAG98R subunits was observed | covalent association with αAG98R subunits (αAG98R [1]; representative of 3 experiments, listed as biotinyl-Bpa mini-αA): confirms the binding of a mini-chaperone to a subunit of αAG98R | Bpa-peptide incorporated into αAG98R subunit (αAG98R [2]): about 10%

Biotin-DFVIFLDVKH[Bpa]SPEDLTVK [biotinyl-Bpa-mini-chaperone] [listing 2 of 2 here]
chaperone activity of Bpa peptide (heat-denatured ADH) [3]: retained chaperone activity | chaperone activity of Bpa peptide (heat-denatured ADH) ([3]; listed as biotin-DFVIFLDVKH(benzoylphenylalanine)SPEDLTVK): active in suppressing the aggregation of heat-denatured ADH | binding stoichiometry (SDS-PAGE/western blot) (αAG98R [1]; photolyzed mixture): one peptide was incorporated into one subunit of αAG98R

DFVIFLDVKHFSPEDLTVK [αA-mini-chaperone]
mutant protein recovered in soluble form (percent) (αAG98R [4]; with or without 10 µg αA-mini-chaperone, 1 hr, listed as αAG98R = absence of mini-chaperone): 79% | recovery of αAG98R (αAG98R [5]): ~80%

DFVPFLDVKHFSPEDLTVK [Pro-substituted mini-chaperone]
effect on monomeric peak / dissociation / precipitation of αAG98R (αAG98R [4]; gel filtration TSK G5000PWXL): did not prevent the precipitation of αAG98R | suppression of αAG98R aggregation, 43°C (αAG98R [6]): failed to suppress precipitation of the mutant protein | chaperone activity of Pro-substituted peptide (EDTA-induced ADH aggregation) [7]: no chaperone activity | chaperone activity of Pro-substituted peptide (EDTA-induced ADH aggregation) ([7]; listed as αA-mini-chaperone (pro)): Pro-substitution abolishes the chaperone activity of mini-chaperone

KFVIFLDVKHFSPEDLTVK [αA70-88, 19 amino acid peptide representing the chaperone site in αA-crystallin]
suppression of aggregation of denaturing ADH, citrate synthase, insulin and α-lactalbumin; chaperone-like function [8]: functions like a molecular chaperone

wild-type αA-crystallin: recombinant wild-type human αA-crystallin expressed in E. coli
oligomeric size and molar mass change upon incubation [9]: oligomeric size and molar mass did not change | temperature up to which / above which 218 nm ellipticity is stable / changes [10]: 40 °C
